Assay results from the supplement of paper PMC6461962.

Tests used:
[1] = tested on: Pseudomonas fluorescens FW300-N2E2
Summary of the method: (§1)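 Cells were washed and added to 384-well plates at a final OD600 of 0.02 in 80 µL, with serial dilutions of inorganic ion salts or equimolar nitrilotriacetic acid complexes. Aerobic plates were shaken at 700 rpm at 30 °C, while anaerobic plates were not shaken, and OD600 was read at 24 h, or at 48 h for R2A strain comparisons. Readings were scaled between water controls and growth-blocking antibiotic controls, and wells with precipitate were excluded. The IC50 was obtained by fitting curves from at least two biological replicates with the drc R package.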

[2] = tested on: Rhodanobacter sp. FW104-10B01
Summary of the method: as §1

[3] = medium / electron acceptor: N2E2 Glucose/aerobic
[4] = medium / electron acceptor: N2E2 Glucose/aerobic 0.25xMinerals
[5] = medium / electron acceptor: N2E2 Glucose/aerobic (2)
[6] = medium / electron acceptor: N2E2 KB/aerobic
[7] = medium / electron acceptor: N2E2 LB/aerobic
[8] = medium / electron acceptor: N2E2 LB/aerobic (2)
[9] = medium / electron acceptor: N2E2 LB/nitrate
[10] = medium / electron acceptor: N2E2 Lactate/aerobic
[11] = medium / electron acceptor: N2E2 R2A/aerobic
[12] = medium / electron acceptor: 10B01 R2A/aerobic
[13] = medium / electron acceptor: 10B01 R2A/nitrate

Row | SMILES | IC50 growth inhibition [1, 3] [mM] | IC50 growth inhibition [1, 4] [mM] | IC50 growth inhibition [1, 5] [mM] | IC50 growth inhibition [1, 6] [mM] | IC50 growth inhibition [1, 7] [mM] | IC50 growth inhibition [1, 8] [mM] | IC50 growth inhibition [1, 9] [mM] | IC50 growth inhibition [1, 10] [mM] | IC50 growth inhibition [1, 11] [mM] | IC50 growth inhibition [2, 12] [mM] | IC50 growth inhibition [2, 13] [mM]
1 | Cl.N [Ammonium chloride] | 354 | 347 | 330 | 333 | 372 | 422 | 199 | 355 | > 500 | > 500 | > 500
2 | [F-].[Na+] [sodium fluoride] | < 0.244 | < 0.244 | < 0.244 | 0.322 | 1.11 | 1.1 | 0.497 | 0.477 | 2.9 | 354 | 11.6
3 | [Cl][Ag] [silver chloride] | 0.139 | > 0.5 | > 0.5 | > 0.5 | > 0.5 | > 0.5 | > 0.5 | 0.154 | > 0.5 | > 0.5 | > 0.5
4 | [Cl-].[Cs+] [Cesium chloride] | < 0.244 | < 0.244 | < 0.244 | 0.791 | 5.91 | 2.14 | 16.6 | < 0.244 | 1.2 | 0.452 | 3.79
5 | O.O.O.O.O.[Cd+2].[Cd+2].[Cl-].[Cl-].[Cl-].[Cl-] [Cadmium chloride hemipentahydrate] | < 0.00244 | < 0.00244 | < 0.00244 | 0.117 | 0.141 | 0.0516 | 0.111 | < 0.00244 | 0.014 | 0.11 | 0.189
6 | O.[Au+3].[Cl-].[Cl-].[Cl-] [gold (III) chloride hydrate] | < 0.000244 | 0.00197 | < 0.000244 | < 0.000244 | < 0.000244 | < 0.000244 | < 0.000244 | 0.000257 | < 0.000244 | < 0.000244 | < 0.000244
7 | [O-][I+2]([O-])O [sodium iodate] | 4.72 | 2.75 | 0.645 | 3.53 | 8.49 | 12.4 | 0.208 | 5.41 | 7.77 | 35.4 | 4.5
8 | O=P([O-])(O)O.[Na+] [Sodium phosphate monobasic monohydrate] | 50.2 | > 500 | 73.8 | 308 | 307 | 354 | 2.25 | 30.3 | 15.7 | 354 | 128
9 | OB1OB2OB(O)OB(O1)O2 [sodium tetraborate decahydrate] | > 5 | > 5 | > 5 | > 5 | > 5 | > 5 | 3.16 | > 5 | > 5 | > 5 | > 5
10 | O=[Se]([O-])[O-].[Na+].[Na+] [Sodium selenite pentahydrate] | < 0.244 | < 0.244 | < 0.244 | < 0.244 | < 0.244 | < 0.244 | 250 | < 0.244 | < 0.244 | 250 | 112
11 | OP(O)(O)=S [Sodium thiophosphate tribasic hydrate] | > 50 | > 50 | > 50 | 42.2 | > 50 | 33.1 | 21 | > 50 | > 50 | > 50 | > 50
